Data published in PubChem BioAssay (NCI).
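Following 48 hours of exposure in 96-well plates, responses at five concentrations were used to interpolate endpoints linearly. At the GI50, growth is halved. TGI denotes the concentration required for complete inhibition of growth.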

Key:
Test in all cases: NCI anticancer screen, dose series, 48 h
RPMI-8226 leukemia = test system: RPMI-8226 leukemia
786-0 renal = test system: 786-0 renal
HOP-92 NSCLC = test system: HOP-92 NSCLC
MALME-3M melanoma = test system: MALME-3M melanoma
SNB-75 CNS = test system: SNB-75 CNS
M14 melanoma = test system: M14 melanoma
SK-MEL-5 melanoma = test system: SK-MEL-5 melanoma
TK-10 renal = test system: TK-10 renal
HS 578T breast = test system: HS 578T breast
SK-MEL-28 melanoma = test system: SK-MEL-28 melanoma
CCRF-CEM leukemia = test system: CCRF-CEM leukemia
A549 NSCLC = test system: A549 NSCLC
BT-549 breast = test system: BT-549 breast
T-47D breast = test system: T-47D breast
SR leukemia = test system: SR leukemia
NCI-H226 lung = test system: NCI-H226 lung
UO-31 renal = test system: UO-31 renal
K-562 leukemia = test system: K-562 leukemia
LOX IMVI melanoma = test system: LOX IMVI melanoma
SN12C renal = test system: SN12C renal
EKVX NSCLC = test system: EKVX NSCLC
HT29 colon = test system: HT29 colon
HCT-116 colon = test system: HCT-116 colon
DU-145 prostate = test system: DU-145 prostate
SK-OV-3 ovarian = test system: SK-OV-3 ovarian
HCT-15 colon = test system: HCT-15 colon
SF-295 CNS = test system: SF-295 CNS
PC-3 prostate = test system: PC-3 prostate
SF-539 CNS = test system: SF-539 CNS
ACHN renal = test system: ACHN renal
OVCAR-3 ovarian = test system: OVCAR-3 ovarian
KM12 colon = test system: KM12 colon
OVCAR-8 ovarian = test system: OVCAR-8 ovarian
MDA-MB-435 = test system: MDA-MB-435
U251 CNS = test system: U251 CNS
MDA-MB-231 breast = test system: MDA-MB-231 breast
RXF 393 renal = test system: RXF 393 renal
UACC-257 melanoma = test system: UACC-257 melanoma
MOLT-4 leukemia = test system: MOLT-4 leukemia
NCI-H23 lung = test system: NCI-H23 lung
HL-60(TB) leukemia = test system: HL-60(TB) leukemia
HOP-62 NSCLC = test system: HOP-62 NSCLC
OVCAR-5 ovarian = test system: OVCAR-5 ovarian
HCC-2998 colon = test system: HCC-2998 colon
NCI/ADR-RES ovarian = test system: NCI/ADR-RES ovarian
COLO 205 colon = test system: COLO 205 colon
A498 renal = test system: A498 renal
NCI-H522 lung = test system: NCI-H522 lung
SW-620 colon = test system: SW-620 colon
MCF7 breast = test system: MCF7 breast
NCI-H460 lung = test system: NCI-H460 lung
SNB-19 CNS = test system: SNB-19 CNS
UACC-62 melanoma = test system: UACC-62 melanoma
SK-MEL-2 melanoma = test system: SK-MEL-2 melanoma
OVCAR-4 ovarian = test system: OVCAR-4 ovarian
CAKI-1 renal = test system: CAKI-1 renal
SF-268 CNS = test system: SF-268 CNS
IGROV1 ovarian = test system: IGROV1 ovarian

## CN1CCN(Cc2ccc(NC(=O)c3cncc(C#Cc4cnc5ccc(OCCCS(C)(=O)=O)nn45)c3)cc2C(F)(F)F)CC1
RPMI-8226 leukemia
  GI50: 1190 nM
  TGI: 3410 nM
786-0 renal
  GI50: 359 nM
  TGI: 1170 nM
HOP-92 NSCLC
  GI50: 101 nM
  TGI: 393 nM
MALME-3M melanoma
  GI50: 128 nM
  TGI: 576 nM
SNB-75 CNS
  GI50: 338 nM
  TGI: 1130 nM
M14 melanoma
  GI50: 171 nM
  TGI: 701 nM
SK-MEL-5 melanoma
  GI50: 775 nM
  TGI: 1740 nM
TK-10 renal
  GI50: 1130 nM
  TGI: 2940 nM
HS 578T breast
  GI50: 318 nM
  TGI: 1660 nM
SK-MEL-28 melanoma
  GI50: 796 nM
  TGI: 2550 nM
CCRF-CEM leukemia
  GI50: 213 nM
  TGI: 22400 nM
A549 NSCLC
  GI50: 1090 nM
  TGI: 5930 nM
BT-549 breast
  GI50: 469 nM
  TGI: 1390 nM
T-47D breast
  GI50: 783 nM
  TGI: 12200 nM
SR leukemia
  GI50: 207 nM
  TGI: 1470 nM
NCI-H226 lung
  GI50: 131 nM
  TGI: 1030 nM
UO-31 renal
  GI50: 1330 nM
  TGI: 3770 nM
K-562 leukemia
  GI50: 12.3 nM
  TGI: 2170 nM
LOX IMVI melanoma
  GI50: 305 nM
  TGI: 1020 nM
SN12C renal
  GI50: 415 nM
  TGI: 2200 nM
EKVX NSCLC
  GI50: 1120 nM
  TGI: 4280 nM
HT29 colon
  GI50: 475 nM
  TGI: 1890 nM
HCT-116 colon
  GI50: 67.3 nM
  TGI: 594 nM
DU-145 prostate
  GI50: 691 nM
  TGI: 3790 nM
SK-OV-3 ovarian
  GI50: 868 nM
  TGI: 3470 nM
HCT-15 colon
  GI50: 1340 nM
  TGI: 4260 nM
SF-295 CNS
  GI50: 1090 nM
  TGI: 4770 nM
PC-3 prostate
  GI50: 873 nM
  TGI: 4970 nM
SF-539 CNS
  GI50: 164 nM
  TGI: 906 nM
ACHN renal
  GI50: 1390 nM
  TGI: 4460 nM
OVCAR-3 ovarian
  GI50: 795 nM
  TGI: 3040 nM
KM12 colon
  GI50: 5 nM
  TGI: 1400 nM
OVCAR-8 ovarian
  GI50: 1000 nM
  TGI: 4330 nM
MDA-MB-435
  GI50: 221 nM
  TGI: 1000 nM
U251 CNS
  GI50: 554 nM
  TGI: 2610 nM
MDA-MB-231 breast
  GI50: 166 nM
  TGI: 1050 nM
RXF 393 renal
  GI50: 803 nM
  TGI: 1630 nM
UACC-257 melanoma
  GI50: 1030 nM
  TGI: 3470 nM
MOLT-4 leukemia
  GI50: 272 nM
  TGI: 3710 nM
NCI-H23 lung
  GI50: 420 nM
  TGI: 1560 nM
HL-60(TB) leukemia
  GI50: 229 nM
  TGI: 802 nM
HOP-62 NSCLC
  GI50: 833 nM
  TGI: 2760 nM
OVCAR-5 ovarian
  GI50: 892 nM
  TGI: 4570 nM
HCC-2998 colon
  GI50: 687 nM
  TGI: 2750 nM
NCI/ADR-RES ovarian
  GI50: 8490 nM
  TGI: 34100 nM
COLO 205 colon
  GI50: 377 nM
  TGI: 1150 nM
A498 renal
  GI50: 863 nM
  TGI: 1620 nM
NCI-H522 lung
  GI50: 460 nM
  TGI: 1280 nM
SW-620 colon
  GI50: 193 nM
  TGI: 1050 nM
MCF7 breast
  GI50: 213 nM
  TGI: 2830 nM
NCI-H460 lung
  GI50: 311 nM
  TGI: 953 nM
SNB-19 CNS
  GI50: 1290 nM
  TGI: 4460 nM
UACC-62 melanoma
  GI50: 571 nM
  TGI: 1520 nM
SK-MEL-2 melanoma
  GI50: 216 nM
  TGI: 783 nM
OVCAR-4 ovarian
  GI50: 547 nM
  TGI: 1930 nM
CAKI-1 renal
  GI50: 459 nM
  TGI: 2680 nM
SF-268 CNS
  GI50: 690 nM
  TGI: 1720 nM
IGROV1 ovarian
  GI50: 258 nM
  TGI: 2450 nM

## CCN1C(=O)N(CC)C2SC(N/N=C/c3cccs3)=NC21 (centres undefined)
RPMI-8226 leukemia
  GI50: 348 nM
  TGI: > 100000 nM
786-0 renal
  GI50: 643 nM
  TGI: > 100000 nM
HOP-92 NSCLC
  GI50: 922 nM
  TGI: > 23300 nM
MALME-3M melanoma
  TGI: > 100000 nM
SNB-75 CNS
  GI50: 122 nM
M14 melanoma
  GI50: 192 nM
  TGI: > 100000 nM
SK-MEL-5 melanoma
  GI50: 523 nM
  TGI: 3360 nM
TK-10 renal
  TGI: > 100000 nM
HS 578T breast
  GI50: 286 nM
  TGI: > 100000 nM
SK-MEL-28 melanoma
  GI50: > 19700 nM
  TGI: > 100000 nM
CCRF-CEM leukemia
  GI50: 360 nM
  TGI: > 100000 nM
A549 NSCLC
  GI50: 431 nM
  TGI: > 100000 nM
BT-549 breast
  GI50: 211 nM
  TGI: 1270 nM
T-47D breast
  GI50: > 45100 nM
  TGI: > 100000 nM
SR leukemia
  GI50: 54.6 nM
  TGI: > 26800 nM
NCI-H226 lung
  GI50: 1430 nM
  TGI: > 100000 nM
UO-31 renal
  GI50: 595 nM
  TGI: > 100000 nM
K-562 leukemia
  GI50: 91.2 nM
  TGI: > 100000 nM
LOX IMVI melanoma
  GI50: 446 nM
  TGI: > 100000 nM
SN12C renal
  GI50: 653 nM
  TGI: > 100000 nM
EKVX NSCLC
  GI50: 655 nM
  TGI: > 100000 nM
HT29 colon
  GI50: 260 nM
  TGI: 3200 nM
HCT-116 colon
  GI50: 281 nM
  TGI: 5430 nM
DU-145 prostate
  GI50: 483 nM
  TGI: > 100000 nM
SK-OV-3 ovarian
  GI50: 532 nM
  TGI: > 100000 nM
HCT-15 colon
  GI50: 202 nM
  TGI: > 100000 nM
SF-295 CNS
  GI50: 262 nM
  TGI: > 100000 nM
PC-3 prostate
  GI50: 345 nM
  TGI: > 100000 nM
SF-539 CNS
  GI50: 198 nM
  TGI: 823 nM
ACHN renal
  GI50: 581 nM
  TGI: > 100000 nM
OVCAR-3 ovarian
  GI50: 333 nM
  TGI: 2070 nM
KM12 colon
  GI50: 232 nM
  TGI: > 100000 nM
OVCAR-8 ovarian
  GI50: 398 nM
MDA-MB-435
  GI50: 33.8 nM
  TGI: 205 nM
U251 CNS
  GI50: 318 nM
  TGI: > 32600 nM
MDA-MB-231 breast
  GI50: 540 nM
  TGI: > 100000 nM
UACC-257 melanoma
  GI50: 1050 nM
  TGI: > 100000 nM
MOLT-4 leukemia
  GI50: 465 nM
  TGI: > 100000 nM
NCI-H23 lung
  GI50: 418 nM
  TGI: > 100000 nM
HL-60(TB) leukemia
  GI50: 186 nM
  TGI: 658 nM
HOP-62 NSCLC
  GI50: 470 nM
  TGI: > 100000 nM
OVCAR-5 ovarian
  GI50: 527 nM
  TGI: > 100000 nM
HCC-2998 colon
  GI50: 313 nM
  TGI: > 93800 nM
NCI/ADR-RES ovarian
  GI50: 356 nM
  TGI: > 100000 nM
COLO 205 colon
  GI50: 248 nM
  TGI: 723 nM
A498 renal
  GI50: 131 nM
  TGI: 705 nM
NCI-H522 lung
  GI50: 81.1 nM
  TGI: 386 nM
SW-620 colon
  GI50: 249 nM
  TGI: > 100000 nM
MCF7 breast
  GI50: 119 nM
  TGI: > 100000 nM
NCI-H460 lung
  GI50: 333 nM
SNB-19 CNS
  GI50: 428 nM
  TGI: > 100000 nM
UACC-62 melanoma
  GI50: 141 nM
  TGI: > 100000 nM
SK-MEL-2 melanoma
  GI50: 360 nM
  TGI: > 100000 nM
OVCAR-4 ovarian
  TGI: > 100000 nM
CAKI-1 renal
  GI50: 191 nM
  TGI: > 100000 nM
SF-268 CNS
  GI50: 1710 nM
  TGI: > 100000 nM
IGROV1 ovarian
  GI50: 579 nM
  TGI: > 100000 nM
